Measured values from US4122034A, “Antimicrobial compositions” (Schering Corporation, priority 1975, dated 1978).
In brackets after ≈: the same amount, converted by molar mass.

Assays:
Trichophyton soudenense = assay: In vitro antifungal activity, dilutions in Sabouraud's Dextrose Broth (Table IV); format: cell-based; conditions: after 96 hours
Procedure: (§1) All the tests were carried out and (when necessary) scored under standard conditions. "MIC" means "minimum inhibitory concentration."
(§2) In vitro Antifungal Activity of 2-amioalkyl-3-phenylindoles
(§3) of the formula I against Dermetophytes and Aspergillus.
(§4) Dilutions in Sabouraud's Dextrose Broth.

Trichophyton ascoides = assay: as above; format: cell-based; conditions: after 96 hours
Procedure: as §1, §2, §3, §4

Aspergillus sp. No. 3 = assay: as above; format: cell-based; conditions: after 96 hours
Procedure: as §1, §2, §3, §4

Trichophyton gallinae = assay: as above; format: cell-based; conditions: after 96 hours
Procedure: as §1, §2, §3, §4

[1] = tested on: Trichophyton mentagrophytes; assay: as above; format: cell-based; conditions: 96 h
Procedure: as §1, §2, §3, §4

Microsporum distortum = assay: as above; format: cell-based; conditions: after 96 hours
Procedure: as §1, §2, §3, §4

Trichophyton megninii = assay: as above; format: cell-based; conditions: Trichophyton rubrum; after 96 hours
Procedure: as §1, §2, §3, §4

Trichophyton tonsurans = assay: as above; format: cell-based; conditions: after 96 hours
Procedure: as §1, §2, §3, §4

[2] = tested on: Trichophyton schoenleinii; assay: as above; format: cell-based; conditions: 96 h
Procedure: as §1, §2, §3, §4

Trichophyton rubrum = assay: as above; format: cell-based; conditions: 96 h
Procedure: as §1, §2, §3, §4

Trichophyton discoides = assay: as above; format: cell-based; conditions: after 96 hours
Procedure: as §1, §2, §3, §4

Aspergillus niger 6275 = assay: as above; format: cell-based; conditions: after 96 hours
Procedure: as §1, §2, §3, §4

Microsporum nanum = assay: as above; format: cell-based; conditions: Nannizzia nana; after 96 hours
Procedure: as §1, §2, §3, §4

Tricoderm sp. = assay: as above; format: cell-based; conditions: after 96 hours
Procedure: as §1, §2, §3, §4

Epidermophyton floccosum = assay: as above; format: cell-based; conditions: after 96 hours
Procedure: as §1, §2, §3, §4

Trichophyton ferrugineum = assay: as above; format: cell-based; conditions: Microsporum ferrugineum; after 96 hours
Procedure: as §1, §2, §3, §4

Streptococcus pyogenes = assay: In vitro antibacterial activity, dilution in Mueller Hinton Agar (Table I); format: cell-based
Procedure: as §1
(§5) In vitro Antibacterial Activity of 2-aminoalkyl-3-phenyl-
(§6) indoles of the formula I. Dilution in Mueller Hinton Agar pH 7.4

Staphylococcus aureus = assay: as above; format: cell-based; conditions: Mueller Hinton Agar pH 7.4
Procedure: as §1, §5, §6

Pseudomonas acruginosa = assay: as above; format: cell-based
Procedure: as §1, §5, §6

Proteus vulgaris = assay: as above; format: cell-based; conditions: strain Napol, Mueller Hinton Agar pH 7.4
Procedure: as §1, §5, §6

Klebsiella = assay: as above; format: cell-based
Procedure: as §1, §5, §6

Enterococcus = assay: as above; format: cell-based
Procedure: as §1, §5, §6

Proteus mirabilis = assay: as above; format: cell-based; conditions: Mueller Hinton Agar pH 7.4
Procedure: as §1, §5, §6

Clostridium novyi = assay: In vitro activity against anaerobes in fluid Thioglycollate medium (Table II); format: cell-based
Procedure: as §1
(§7) In vitro activity of 2-aminoalkyl-3-phenylindoles of the formula I
(§8) against anaerobes in fluid Thioglycollate medium

Clostridium histolyticum = assay: as above; format: cell-based; conditions: Hathewaya histolytica
Procedure: as §1, §7, §8

[3] = tested on: Bacteroides melaninogenicus; assay: as above; format: cell-based
Procedure: as §1, §7, §8

Eubacterium lentum = assay: as above; format: cell-based; conditions: Eggerthella lenta
Procedure: as §1, §7, §8

Peptostreptococcus = assay: as above; format: cell-based
Procedure: as §1, §7, §8

Clostridium septicum = assay: as above; format: cell-based
Procedure: as §1, §7, §8

Bacteroides fragilis = assay: as above; format: cell-based
Procedure: as §1, §7, §8

Bacteroides corrodens = assay: as above; format: cell-based; conditions: Eikenella corrodens
Procedure: as §1, §7, §8

T. mentagrophytes = assay: Effect against topical T. mentagrophytes infections in guinea pigs (Table VI); format: in vivo; parameters: Average Sum of lesion scores, Days 1-5 / Average Sum of lesion scores, Days 1-10: scale not given here; conditions: for Average Sum of lesion scores, Days 1-5: untreated controls 14.8; for Average Sum of lesion scores, Days 1-10: untreated controls 38.2
Procedure: as §1
Effect of some 2-aminoalkyl-3-phenylindoles of the formula II
against topical T. mentagrophytes infections in guinea pigs.

[4] = Acute toxicity in mice (Table V); conditions: mouse, in vivo
Procedure: as §1
Acute Toxicity of 2-aminoalkyl-3-phenylindoles of the formula I

Trychomonas vaginalis = assay: In vitro Anti-Trichomonal activity (Table VII); format: cell-based
Procedure: as §1
In vitro Anti-Trichomonal Activity of some 2-aminoalkyl-3-
phenyl-indenes of formula II.

Structure (SMILES): NCc1[nH]c2ccc(Cl)cc2c1-c1ccccc1F [A, 2-Aminomethyl-5-chloro-3-(2-fluorophenyl)indole]
- MIC (Trichophyton soudenense): 17.5 µg/mL (≈ 63.7 µM)
- MIC (Trichophyton ascoides): 17.5 µg/mL (≈ 63.7 µM)
- MIC (Aspergillus sp. No. 3): 17.5 µg/mL (≈ 63.7 µM)
- MIC (Trichophyton gallinae): 7.5 µg/mL (≈ 27.3 µM)
- MIC ([1]; strain A, after 96 hours): 7.5 µg/mL (≈ 27.3 µM)
- MIC ([1]; strain B, after 96 hours): 7.5 µg/mL (≈ 27.3 µM)
- MIC ([1]; strain C, after 96 hours): 7.5 µg/mL (≈ 27.3 µM)
- MIC ([1]; strain H377, after 96 hours): 7.5 µg/mL (≈ 27.3 µM)
- MIC ([1]; strain Young, after 96 hours): 7.5 µg/mL (≈ 27.3 µM)
- MIC (Microsporum distortum): 3 µg/mL (≈ 10.9 µM)
- MIC (Trichophyton megninii): 3 µg/mL (≈ 10.9 µM)
- MIC (Trichophyton tonsurans): 17.5 µg/mL (≈ 63.7 µM)
- MIC ([2]; strain 2, after 96 hours): 3 µg/mL (≈ 10.9 µM)
- MIC ([2]; strain not given, after 96 hours): 17.5 µg/mL (≈ 63.7 µM)
- MIC (Trichophyton rubrum; strain 3, after 96 hours): 7.5 µg/mL (≈ 27.3 µM)
- MIC (Trichophyton rubrum; strain 360, after 96 hours): 7.5 µg/mL (≈ 27.3 µM)
- MIC (Trichophyton rubrum; strain Blehl, after 96 hours): 7.5 µg/mL (≈ 27.3 µM)
- MIC (Trichophyton rubrum; strain Haggerty, after 96 hours): 7.5 µg/mL (≈ 27.3 µM)
- MIC (Trichophyton discoides): 7.5 µg/mL (≈ 27.3 µM)
- MIC (Aspergillus niger 6275): 17.5 µg/mL (≈ 63.7 µM)
- MIC (Microsporum nanum): 3 µg/mL (≈ 10.9 µM)
- MIC (Tricoderm sp.): 7.5 µg/mL (≈ 27.3 µM)
- MIC (Epidermophyton floccosum): 3 µg/mL (≈ 10.9 µM)
- MIC (Trichophyton ferrugineum): 7.5 µg/mL (≈ 27.3 µM)
- MIC (Streptococcus pyogenes; pH 7.4, strain 27, Mueller Hinton Agar pH 7.4): 7.5 µg/mL (≈ 27.3 µM)
- MIC (Streptococcus pyogenes; pH 7.4, strain C, Mueller Hinton Agar pH 7.4): 7.5 µg/mL (≈ 27.3 µM)
- MIC (Streptococcus pyogenes; pH 7.4, strain Cruz, Mueller Hinton Agar pH 7.4): 3 µg/mL (≈ 10.9 µM)
- MIC (Staphylococcus aureus; 209P, pH 7.4, strain 209P): 7.5 µg/mL (≈ 27.3 µM)
- MIC (Staphylococcus aureus; pH 7.4, strain 59N): 3 µg/mL (≈ 10.9 µM)
- MIC (Staphylococcus aureus; pH 7.4, strain Gray): 7.5 µg/mL (≈ 27.3 µM)
- MIC (Staphylococcus aureus; pH 7.4, strain Wood): 3 µg/mL (≈ 10.9 µM)
- MIC (Staphylococcus aureus; pH 7.4, strain Zeigler): 3 µg/mL (≈ 10.9 µM)
- MIC (Pseudomonas acruginosa; pH 7.4, strain 130, Mueller Hinton Agar pH 7.4): 17.5 µg/mL (≈ 63.7 µM)
- MIC (Pseudomonas acruginosa; pH 7.4, strain 138, Mueller Hinton Agar pH 7.4): 17.5 µg/mL (≈ 63.7 µM)
- MIC (Pseudomonas acruginosa; pH 7.4, strain 762, Mueller Hinton Agar pH 7.4): 17.5 µg/mL (≈ 63.7 µM)
- MIC (Pseudomonas acruginosa; pH 7.4, strain 8709, Mueller Hinton Agar pH 7.4): 17.5 µg/mL (≈ 63.7 µM)
- MIC (Pseudomonas acruginosa; pH 7.4, strain Trav. 1, Mueller Hinton Agar pH 7.4): 17.5 µg/mL (≈ 63.7 µM)
- MIC (Proteus vulgaris): 17.5 µg/mL (≈ 63.7 µM)
- MIC (Klebsiella; pH 7.4, strain 121, Mueller Hinton Agar pH 7.4): 7.5 µg/mL (≈ 27.3 µM)
- MIC (Klebsiella; pH 7.4, strain 3020, Mueller Hinton Agar pH 7.4): 7.5 µg/mL (≈ 27.3 µM)
- MIC (Klebsiella; pH 7.4, strain AD17, Mueller Hinton Agar pH 7.4): 7.5 µg/mL (≈ 27.3 µM)
- MIC (Klebsiella; pH 7.4, strain AD22, Mueller Hinton Agar pH 7.4): 7.5 µg/mL (≈ 27.3 µM)
- MIC (Klebsiella; pH 7.4, strain G3694, Mueller Hinton Agar pH 7.4): 7.5 µg/mL (≈ 27.3 µM)
- MIC (Enterococcus; pH 7.4, strain 373, Mueller Hinton Agar pH 7.4): 7.5 µg/mL (≈ 27.3 µM)
- MIC (Enterococcus; pH 7.4, strain 0928/72, Mueller Hinton Agar pH 7.4): 7.5 µg/mL (≈ 27.3 µM)
- MIC (Proteus mirabilis; pH 7.4, strain Hard): 17.5 µg/mL (≈ 63.7 µM)
- MIC (Proteus mirabilis; pH 7.4, strain Peras): 7.5 µg/mL (≈ 27.3 µM)
- MIC (Clostridium novyi; 48 hrs): 7.5 µg/mL (≈ 27.3 µM)
- MIC (Clostridium novyi; 72 hrs): 7.5 µg/mL (≈ 27.3 µM)
- MIC (Clostridium histolyticum; 48 hrs): 7.5 µg/mL (≈ 27.3 µM)
- MIC (Clostridium histolyticum; 72 hrs): 7.5 µg/mL (≈ 27.3 µM)
- MIC ([3]; 48 hrs): 7.5 µg/mL (≈ 27.3 µM)
- MIC ([3]; 72 hrs): 7.5 µg/mL (≈ 27.3 µM)
- MIC (Eubacterium lentum; 48 hrs): 17.5 µg/mL (≈ 63.7 µM)
- MIC (Eubacterium lentum; 72 hrs): 17.5 µg/mL (≈ 63.7 µM)
- MIC (Peptostreptococcus; 48 hrs): 3 µg/mL (≈ 10.9 µM)
- MIC (Peptostreptococcus; 72 hrs): 3 µg/mL (≈ 10.9 µM)
- MIC (Clostridium septicum; 48 hrs): 7.5 µg/mL (≈ 27.3 µM)
- MIC (Clostridium septicum; 72 hrs): 7.5 µg/mL (≈ 27.3 µM)
- MIC (Bacteroides fragilis; 48 hrs): 7.5 µg/mL (≈ 27.3 µM)
- MIC (Bacteroides fragilis; 72 hrs): 7.5 µg/mL (≈ 27.3 µM)
- MIC (Bacteroides corrodens; 48 hrs): 7.5 µg/mL (≈ 27.3 µM)
- MIC (Bacteroides corrodens; 72 hrs): 7.5 µg/mL (≈ 27.3 µM)
- Average No. of Days to become negative, Cultures (T. mentagrophytes; concentration 1%): 6.8 days
- Average No. of Days to become negative, Lesion (T. mentagrophytes; concentration 1%): 9.0 days
- Average Sum of lesion scores, Days 1-5 (T. mentagrophytes; concentration 1%): 11.8
- Average Sum of lesion scores, Days 1-10 (T. mentagrophytes; concentration 1%): 16.0
- Average No. of Days to become negative, Cultures (T. mentagrophytes; concentration 4%): 6.0 days
- Average No. of Days to become negative, Lesion (T. mentagrophytes; concentration 4%): 8.8 days
- Average Sum of lesion scores, Days 1-5 (T. mentagrophytes; concentration 4%): 11.2
- Average Sum of lesion scores, Days 1-10 (T. mentagrophytes; concentration 4%): 14.8
- LD50 ([4]; Oral): > 1000 mg/kg
- LD50 ([4]; ip, I.P.): 250 mg/kg
- LD50 ([4]; sc, S.C.): 850 mg/kg
- IC50 (Trychomonas vaginalis; 50% suppression, read-out: Minimal Level to Produce 50% Suppression): 24 µg/mL (≈ 87.4 µM)
- IC90 (Trychomonas vaginalis; 90% suppression, read-out: Minimal Level to Produce 90% Suppression): 40 µg/mL (≈ 146 µM)
